Test results published in ChEMBL document CHEMBL4118098, “Discovery of DS28120313 as a potent orally active hepcidin production inhibitor: Design and optimization of novel 4,6-disubstituted indazole derivatives” (Bioorg Med Chem Lett, 2017).
Values belong to the compound of their own block, whether it stands above or below them.

Assays:
[1] = target: T1, Testis-specific serine/threonine-protein kinase 1 (Homo sapiens) (UniProt Q9BXA7); assay: Inhibition of TSSK1 (unknown origin) at 0.45 uM relative to control
T1 sequence (whole entry): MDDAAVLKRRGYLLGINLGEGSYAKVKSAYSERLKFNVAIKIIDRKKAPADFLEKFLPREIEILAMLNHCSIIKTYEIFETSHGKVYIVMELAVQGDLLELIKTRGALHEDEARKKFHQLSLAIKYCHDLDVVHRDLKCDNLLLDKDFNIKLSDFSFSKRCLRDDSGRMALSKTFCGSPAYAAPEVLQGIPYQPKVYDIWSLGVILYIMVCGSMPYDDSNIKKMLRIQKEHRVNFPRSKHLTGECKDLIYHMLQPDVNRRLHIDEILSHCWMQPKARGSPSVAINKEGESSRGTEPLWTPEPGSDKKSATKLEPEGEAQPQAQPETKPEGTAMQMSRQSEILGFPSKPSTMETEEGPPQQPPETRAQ

[2] = target: Tyrosine-protein kinase ABL1 (Homo sapiens) (UniProt P00519); assay: Inhibition of ABL (unknown origin) at 0.164 uM relative to control
[3] = target: Dual specificity tyrosine-phosphorylation-regulated kinase 3 (Homo sapiens) (UniProt O43781); assay: Inhibition of DYRK3 (unknown origin) at 0.164 uM relative to control
[4] = target: NUAK family SNF1-like kinase 1 (Homo sapiens) (UniProt O60285); assay: Inhibition of NuaK1 (unknown origin) at 0.164 uM relative to control
[5] = target: RAC-beta serine/threonine-protein kinase (Homo sapiens) (UniProt P31751); assay: Inhibition of AKT2 (unknown origin) at 0.164 uM relative to control
[6] = tested on: Epidermal growth factor receptor (Homo sapiens), P00533 [T790M]; assay: Inhibition of EGFR T790M mutant (unknown origin) at 0.164 uM relative to control
[7] = target: Protein kinase C zeta type (Homo sapiens) (UniProt Q05513); assay: Inhibition of PKC-zeta (unknown origin) at 0.164 uM relative to control
[8] = target: Serine/threonine-protein kinase D3 (Homo sapiens) (UniProt O94806); assay: Inhibition of PKD3 (unknown origin) at 0.164 uM relative to control
[9] = target: Serine/threonine-protein kinase D2 (Homo sapiens) (UniProt Q9BZL6); assay: Inhibition of PKD2 (unknown origin) at 0.164 uM relative to control
[10] = target: Leukocyte tyrosine kinase receptor (Homo sapiens) (UniProt P29376); assay: Inhibition of LTK (unknown origin) at 0.164 uM relative to control
[11] = tested on: Tyrosine-protein kinase ABL1 (Homo sapiens), P00519 [G250E]; assay: Inhibition of ABL1 G250E mutant (unknown origin) at 0.164 uM relative to control
[12] = target: T2, Tyrosine-protein kinase TXK (Homo sapiens) (UniProt P42681); assay: Inhibition of TXK (unknown origin) at 0.19 uM relative to control
T2 sequence (whole entry): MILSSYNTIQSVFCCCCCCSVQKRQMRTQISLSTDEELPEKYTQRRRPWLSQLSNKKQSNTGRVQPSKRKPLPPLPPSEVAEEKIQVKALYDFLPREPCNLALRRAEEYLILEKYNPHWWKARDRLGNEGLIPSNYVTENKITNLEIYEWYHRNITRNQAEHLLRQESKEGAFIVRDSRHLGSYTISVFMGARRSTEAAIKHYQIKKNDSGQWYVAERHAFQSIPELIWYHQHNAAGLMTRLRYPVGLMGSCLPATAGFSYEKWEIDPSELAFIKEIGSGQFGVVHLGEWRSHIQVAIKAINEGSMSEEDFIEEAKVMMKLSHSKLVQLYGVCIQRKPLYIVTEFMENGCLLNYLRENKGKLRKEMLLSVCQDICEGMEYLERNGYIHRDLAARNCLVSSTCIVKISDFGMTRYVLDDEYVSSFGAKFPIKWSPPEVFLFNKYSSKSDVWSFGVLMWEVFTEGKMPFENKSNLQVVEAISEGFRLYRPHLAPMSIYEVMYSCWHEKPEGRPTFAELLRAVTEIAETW

[13] = target: MAP/microtubule affinity-regulating kinase 3 (Homo sapiens) (UniProt P27448); assay: Inhibition of c-TAK1 (unknown origin) at 0.19 uM relative to control
[14] = target: Death-associated protein kinase 3 (Homo sapiens) (UniProt O43293); assay: Inhibition of ZIPK (unknown origin) at 0.19 uM relative to control
[15] = target: Ephrin type-A receptor 8 (Homo sapiens) (UniProt P29322); assay: Inhibition of EPHA8 (unknown origin) at 0.19 uM relative to control
[16] = target: Serine/threonine-protein kinase 4 (Homo sapiens) (UniProt Q13043); assay: Inhibition of MST1 (unknown origin) at 0.19 uM relative to control
[17] = target: Ephrin type-A receptor 1 (Homo sapiens) (UniProt P21709); assay: Inhibition of EPHA1 (unknown origin) at 0.19 uM relative to control
[18] = target: Calcium/calmodulin-dependent protein kinase type II subunit alpha (Homo sapiens) (UniProt Q9UQM7); assay: Inhibition of CaMK2a (unknown origin) at 0.19 uM relative to control
[19] = target: Ephrin type-A receptor 4 (Homo sapiens) (UniProt P54764); assay: Inhibition of EPHA4 (unknown origin) at 0.19 uM relative to control
[20] = tested on: Epidermal growth factor receptor (Homo sapiens), P00533 [T790M]; assay: Inhibition of EGFR T790M mutant (unknown origin) at 0.19 uM relative to control
[21] = target: Tyrosine-protein kinase Yes (Homo sapiens) (UniProt P07947); assay: Inhibition of Yes (unknown origin) at 0.19 uM relative to control
[22] = tested on: Proto-oncogene tyrosine-protein kinase receptor Ret (Homo sapiens), P07949 [V804L]; assay: Inhibition of Ret V804L mutant (unknown origin) at 0.19 uM relative to control
[23] = target: Protein kinase C alpha type (Homo sapiens) (UniProt P17252); assay: Inhibition of PKC-alpha (unknown origin) at 0.19 uM relative to control
[24] = target: Ribosomal protein S6 kinase alpha-3 (Homo sapiens) (UniProt P51812); assay: Inhibition of RSK2 (unknown origin) at 0.19 uM relative to control
[25] = target: Mitogen-activated protein kinase 13 (Homo sapiens) (UniProt O15264); assay: Inhibition of p38-delta (unknown origin) at 0.19 uM relative to control
[26] = target: BDNF/NT-3 growth factors receptor (Homo sapiens) (UniProt Q16620); assay: Inhibition of NTRK2 (unknown origin) at 0.19 uM relative to control
[27] = target: Ribosomal protein S6 kinase alpha-1 (Homo sapiens) (UniProt Q15418); assay: Inhibition of RSK1 (unknown origin) at 0.19 uM relative to control
[28] = target: Homeodomain-interacting protein kinase 4 (Homo sapiens) (UniProt Q8NE63); assay: Inhibition of HIPK4 (unknown origin) at 0.19 uM relative to control

- inhibition [1]: -1%
SMILES: Cc1n[nH]c(C)c1-c1ccc2c(NC(=O)c3ccc(N4CCN(C)CC4)cc3)n[nH]c2c1

- inhibition [2]: 7%
- inhibition [3]: 5.3%
- inhibition [4]: 0.7%
- inhibition [5]: 1.3%
- inhibition [6]: 1.3%
- inhibition [7]: 11.7%
- inhibition [8]: 2.7%
- inhibition [9]: 9.3%
- inhibition [10]: -2.7%
- inhibition [11]: 7.3%
SMILES: COC(=O)Nc1cc(-c2c(C3CC3)n[nH]c2C)cc2[nH]ncc12

- inhibition [12]: -8.3%
- inhibition [13]: 0.3%
- inhibition [15]: 9.3%
- inhibition [16]: 28%
- inhibition [17]: 6.3%
- inhibition [18]: -2.3%
- inhibition [19]: 2%
- inhibition [20]: 0.7%
- inhibition [21]: 3.7%
- inhibition [22]: 7%
- inhibition [23]: -1.7%
- inhibition [24]: -5.7%
- inhibition [25]: 4.7%
- inhibition [26]: 18.3%
- inhibition [27]: 4.7%
- inhibition [28]: -0.7%
SMILES: Cc1[nH]nc(C2CC2)c1-c1ccc2c(-c3ccc(N4CCN(C)CC4)nc3)n[nH]c2c1
- inhibition [14]: -2%
